Experimental findings from patent US10214519B2, “Phosphatidylinositol 3-kinase inhibitors” (Gilead Sciences, Inc., priority 2016, dated 2019) are described below.

The term IC50 denotes the concentration that gives 50% inhibition. Higher therefore signals weaker potency in that assay.

The target of the assay is PI3Kβ (Homo sapiens (Human), UniProt P42338). In words: PI3K isoform TR-FRET enzymatic assay (PI3Kβ). The class given is biochemical. Particulars: 2× Km ATP, 30 minutes at 25° C. The gist of the method:
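IC50 came from four-parameter dose-response fits, normalized between DMSO and 1 μM wortmannin controls. The read-out was TR-FRET (615/665 nm) of PIP3 displacing fluorescent PIP3 from Europium GRP-1 after 10 mM EDTA termination. Compounds were incubated with purified heterodimeric PI3Kβ for 30 min at 25° C.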
For orientation: In TR-FRET formats the signal depends on donor and acceptor labels being close together.

Sequence of PI3Kβ (P42338 whole entry, canonical isoform): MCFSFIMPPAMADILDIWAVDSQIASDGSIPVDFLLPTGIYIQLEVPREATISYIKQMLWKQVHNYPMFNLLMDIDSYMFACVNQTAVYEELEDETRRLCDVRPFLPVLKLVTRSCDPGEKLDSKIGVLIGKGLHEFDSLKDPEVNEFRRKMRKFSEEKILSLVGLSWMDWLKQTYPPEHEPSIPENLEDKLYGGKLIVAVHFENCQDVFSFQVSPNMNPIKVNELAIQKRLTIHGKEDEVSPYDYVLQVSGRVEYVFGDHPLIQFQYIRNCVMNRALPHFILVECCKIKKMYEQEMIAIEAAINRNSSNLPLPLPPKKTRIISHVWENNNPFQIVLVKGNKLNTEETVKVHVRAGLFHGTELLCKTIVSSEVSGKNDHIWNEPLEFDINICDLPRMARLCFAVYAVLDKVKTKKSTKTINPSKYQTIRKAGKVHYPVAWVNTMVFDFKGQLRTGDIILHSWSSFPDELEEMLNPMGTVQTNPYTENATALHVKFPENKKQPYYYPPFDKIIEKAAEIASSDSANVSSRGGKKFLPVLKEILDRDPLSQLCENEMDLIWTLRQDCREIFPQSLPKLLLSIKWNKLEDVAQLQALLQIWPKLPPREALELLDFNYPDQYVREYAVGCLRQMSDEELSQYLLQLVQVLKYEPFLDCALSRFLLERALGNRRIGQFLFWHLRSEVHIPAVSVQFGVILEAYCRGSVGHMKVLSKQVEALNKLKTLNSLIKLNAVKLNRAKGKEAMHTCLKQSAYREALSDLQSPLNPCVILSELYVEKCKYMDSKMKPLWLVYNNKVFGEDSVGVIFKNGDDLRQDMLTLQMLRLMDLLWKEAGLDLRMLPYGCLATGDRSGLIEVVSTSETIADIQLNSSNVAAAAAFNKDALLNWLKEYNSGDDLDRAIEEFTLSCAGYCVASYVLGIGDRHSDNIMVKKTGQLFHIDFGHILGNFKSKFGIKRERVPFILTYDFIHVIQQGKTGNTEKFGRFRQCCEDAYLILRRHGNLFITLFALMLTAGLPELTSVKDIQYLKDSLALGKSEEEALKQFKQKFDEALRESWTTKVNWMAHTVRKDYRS
Sequence of PI3Kβ (P27986 whole entry partner, canonical isoform): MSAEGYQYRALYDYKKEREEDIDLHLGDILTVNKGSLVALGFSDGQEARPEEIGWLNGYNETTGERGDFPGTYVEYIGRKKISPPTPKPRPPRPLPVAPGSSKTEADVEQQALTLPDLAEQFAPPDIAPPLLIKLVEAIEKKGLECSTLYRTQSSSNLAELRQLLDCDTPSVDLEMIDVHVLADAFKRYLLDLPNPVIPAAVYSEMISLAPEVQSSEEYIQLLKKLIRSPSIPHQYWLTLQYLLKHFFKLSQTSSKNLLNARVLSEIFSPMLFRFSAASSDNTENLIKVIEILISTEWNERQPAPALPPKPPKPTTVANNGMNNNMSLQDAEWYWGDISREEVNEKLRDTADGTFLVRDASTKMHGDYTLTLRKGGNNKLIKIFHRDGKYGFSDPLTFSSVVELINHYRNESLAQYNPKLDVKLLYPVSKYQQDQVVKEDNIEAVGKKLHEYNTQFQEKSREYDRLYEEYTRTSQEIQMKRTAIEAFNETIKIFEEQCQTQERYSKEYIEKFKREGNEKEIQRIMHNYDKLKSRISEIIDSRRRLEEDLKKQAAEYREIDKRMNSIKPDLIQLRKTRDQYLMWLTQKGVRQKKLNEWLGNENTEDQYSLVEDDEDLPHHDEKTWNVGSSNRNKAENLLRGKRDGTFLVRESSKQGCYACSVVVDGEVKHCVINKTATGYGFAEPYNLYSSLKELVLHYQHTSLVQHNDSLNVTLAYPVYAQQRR

Consider `Cc1cccc2nccc(-n3c(C)nc4c(-c5nnc[nH]5)cc(N5CCOCC5)cc43)c12` (atropisomer, axis not shown) [Compound 363, 4-[2-methyl-3-(5-methylquinolin-4-yl)-7-(4H-1,2,4-triazol-3-yl)benzimidazol-5-yl]morpholine], for which it took 8000 nM to reach half-maximal inhibition (IC50). Then `Cc1nc2c(-c3cn[nH]c3)cc(N3CCOCC3)cc2n1-c1ccnc2c(Cl)cccc12` [Example 183, 4-(1-(8-chloroquinolin-4-yl)-2-methyl-4-(1H-pyrazol-4-yl)-1H-benzo[d]imidazol-6-yl)morpholine], with 170 nM. `c1ccc(-c2nc3c(-c4nnc[nH]4)cc(N4CCOCC4)cc3n2-c2ccnc3ccccc23)nc1` [Example 6, 4-(2-(pyridin-2-yl)-1-(quinolin-4-yl)-4-(4H-1,2,4-triazol-3-yl)-1H-benzo[d]imidazol-6-yl)morpholine] had an IC50 of 31 nM.

`CCCc1nc2c(-c3nnc[nH]3)cc(N3CCOCC3)cc2n1-c1ccnc2c(F)cc(F)cc12` [Example 146, 4-[3-(6,8-difluoroquinolin-4-yl)-2-propyl-7-(4H-1,2,4-triazol-3-yl)benzimidazol-5-yl]morpholine] yielded an IC50 of 101 nM. The same measure for `Fc1cccc2c(-n3c(CC4CC4)nc4c(-c5ncco5)cc(N5CCOCC5)cc43)ccnc12` [Example 225, 4-[2-(cyclopropylmethyl)-3-(8-fluoroquinolin-4-yl)-7-(1,3-oxazol-2-yl)benzimidazol-5-yl]morpholine]: 18 nM; for `Clc1cccc2c(-n3c(-c4cncs4)nc4c(-c5nnc[nH]5)cc(N5CCOCC5)cc43)ccnc12` [Example 119, 4-[3-(8-chloroquinolin-4-yl)-2-(1,3-thiazol-5-yl)-7-(4H-1,2,4-triazol-3-yl)benzimidazol-5-yl]morpholine]: 24 nM; for `Cc1nc2c(-c3nnc[nH]3)cc(N3CCOCC3)cc2n1-c1cc(-c2nnc[nH]2)nc2ccccc12` [Example 57, 4-[2-methyl-7-(4H-1,2,4-triazol-3-yl)-3-[2-(4H-1,2,4-triazol-3-yl)quinolin-4-yl]benzimidazol-5-yl]morpholine]: 55 nM.

In turn, `Cc1cc(-n2c(C)nc3c(-c4nc(C)n[nH]4)cc(N4CCOCC4)cc32)c2ccc(F)cc2n1` [Example 79, 4-[3-(7-fluoro-2-methylquinolin-4-yl)-2-methyl-7-(3-methyl-1H-1,2,4-triazol-5-yl)benzimidazol-5-yl]morpholine] displayed an IC50 of 110 nM. The same measure for `CC(C)c1nc2c(-c3nnc[nH]3)cc(N3CCOCC3)cc2n1-c1ccnc2c(Cl)cccc12` [Example 36, 4-(1-(8-chloroquinolin-4-yl)-2-isopropyl-4-(4H-1,2,4-triazol-3-yl)-1H-benzo[d]imidazol-6-yl)morpholine]: 11 nM; for `Cc1nc2c(-c3ccsc3)cc(N3CCOCC3)cc2n1-c1ccnc2c(Cl)cccc12` [Example 272, 4-[3-(8-chloroquinolin-4-yl)-2-methyl-7-thiophen-3-ylbenzimidazol-5-yl]morpholine]: 65 nM. Then `Cc1nc2c(-c3ccccn3)cc(N3CCOCC3)cc2n1-c1ccnc2c(Cl)cccc12` [Example 323, 4-[3-(8-chloroquinolin-4-yl)-2-methyl-7-pyridin-2-ylbenzimidazol-5-yl]morpholine], with 417 nM.

The molecule `CCCc1nc2c(-c3ccn[nH]3)cc(N3CCOCC3)cc2n1-c1ccnc2c(F)ccc(F)c12` (atropisomer, axis not shown) [Compound 368, 4-(1-(5,8-difluoroquinolin-4-yl)-2-propyl-4-(1H-pyrazol-5-yl)-1H-benzo[d]imidazol-6-yl)morpholine] had an IC50 of 18 nM.

For the molecule `Cc1nc2c(-c3cnccn3)cc(N3CCOCC3)cc2n1-c1ccnc2c(Cl)cccc12` [Example 246, 4-[3-(8-chloroquinolin-4-yl)-2-methyl-7-pyrazin-2-ylbenzimidazol-5-yl]morpholine], the IC50 is 1100 nM.

Molecule `Cc1nc2c(-c3ncco3)cc(N3CCOCC3)cc2n1-c1ccnc2c(F)cccc12` (atropisomer, axis not shown) [Example 340, 4-[3-(8-fluoroquinolin-4-yl)-2-methyl-7-(1,3-oxazol-2-yl)benzimidazol-5-yl]morpholine] showed an IC50 of 1900 nM. Then `Cc1nc2c(-c3nnc(Cl)[nH]3)cc(N3CCOCC3)cc2n1-c1ccnc2c(Cl)c(F)ccc12` [Example 171, 4-(4-(5-chloro-4H-1,2,4-triazol-3-yl)-1-(8-chloro-7-fluoroquinolin-4-yl)-2-methyl-1H-benzo[d]imidazol-6-yl)morpholine], with 100 nM.

`Clc1ncc(-c2cc(N3CCOCC3)cc3c2ncn3-c2ccnc3c(Cl)cccc23)[nH]1` [Example 285, 4-[7-(2-chloro-1H-imidazol-5-yl)-3-(8-chloroquinolin-4-yl)benzimidazol-5-yl]morpholine] gave an IC50 of 4 nM. The same measure for `Clc1cccc2c(-n3cnc4c(-c5ncco5)cc(N5CCOCC5)cc43)ccnc12` [Example 224, 4-[3-(8-chloroquinolin-4-yl)-7-(1,3-oxazol-2-yl)benzimidazol-5-yl]morpholine]: 3 nM; for `Cc1nc2c(-c3nnc[nH]3)cc(N3CCOCC3)cc2n1-c1cc(-c2cn[nH]c2)nc2ccccc12` [Example 167, 4-(1-(2-(1H-pyrazol-4-yl)quinolin-4-yl)-2-methyl-4-(4H-1,2,4-triazol-3-yl)-1H-benzo[d]imidazol-6-yl)morpholine 2,2,2-trifluoroacetate]: 12 nM.

Take `Cc1csc(-c2cc(N3CCOCC3)cc3c2nc(C)n3-c2ccnc3c(Cl)ccc(F)c23)n1` [Example 238, 4-[3-(8-chloro-5-fluoroquinolin-4-yl)-2-methyl-7-(4-methyl-1,3-thiazol-2-yl)benzimidazol-5-yl]morpholine]: half-maximal inhibition (IC50) was put at 4 nM. This IC50 lies about 3-fold lower than the previous one. The same measure for `Cc1cc(-n2c(C)nc3c(-c4nc(C)n[nH]4)cc(N4CCOCC4)cc32)c2cccc(C(F)(F)F)c2n1` [Example 77, 4-[2-methyl-7-(3-methyl-1H-1,2,4-triazol-5-yl)-3-[2-methyl-8-(trifluoromethyl)quinolin-4-yl]benzimidazol-5-yl]morpholine]: 97 nM; for `CCCc1nc2c(-c3cnc(Cl)[nH]3)cc(N3CCOCC3)cc2n1-c1ccnc2c(Cl)cccc12` [Example 281, 4-[7-(2-chloro-1H-imidazol-5-yl)-3-(8-chloroquinolin-4-yl)-2-propylbenzimidazol-5-yl]morpholine]: 15 nM; for `Cc1cc(-n2c(C)nc3c(-c4nnc[nH]4)cc(N4CCOCC4)cc32)c2cccc(Cl)c2n1` [Example 64, 4-[3-(8-chloro-2-methylquinolin-4-yl)-2-methyl-7-(4H-1,2,4-triazol-3-yl)benzimidazol-5-yl]morpholine]: 21 nM. Consider `c1ccc2c(-n3c(C4COC4)nc4c(-c5nnc[nH]5)cc(N5CCOCC5)cc43)ccnc2c1` [Example 24, 4-(2-(oxetan-3-yl)-1-(quinolin-4-yl)-4-(4H-1,2,4-triazol-3-yl)-1H-benzo[d]imidazol-6-yl)morpholine], for which the IC50 was found to be 1500 nM. For `Cc1nc2c(-c3nnc[nH]3)cc(N3CCOCC3)cc2n1-c1cc(N2CCNCC2)nc2ccccc12` [Example 168, 4-(2-methyl-1-(2-(piperazin-1-yl)quinolin-4-yl)-4-(4H-1,2,4-triazol-3-yl)-1H-benzo[d]imidazol-6-yl)morpholine 2,2,2-trifluoroacetate], half-maximal inhibition (IC50) required 9 nM. The same measure for `CCc1nc2c(-c3ncco3)cc(N3CCOCC3)cc2n1-c1ccnc2c(Cl)cccc12` [Example 226, 4-[3-(8-chloroquinolin4-yl)-2-ethyl-7-(1,3-oxazol-2-yl)benzimidazol-5-yl]morpholine]: 5 nM; for `Cc1nc2c(-c3nnc[nH]3)cc(N3CCOCC3)cc2n1-c1ccnc2c(C#N)cccc12` [Example 89, 4-[2-methyl-6-morpholin-4-yl-4-(4H-1,2,4-triazol-3-yl)benzimidazol-1-yl]quinoline-8-carbonitrile]: 12 nM; for `Cc1ncc(-c2cc(N3CCOCC3)cc3c2nc(C)n3-c2ccnc3c(Cl)cccc23)s1` [Example 297, 4-[3-(8-chloroquinolin-4-yl)-2-methyl-7-(2-methyl-1,3-thiazol-5-yl)benzimidazol-5-yl]morpholine]: 3800 nM. The same measure for `CCc1nc2c(-c3nnc[nH]3)cc(N3CCOCC3)cc2n1-c1c(C)cnc2c(C#N)cccc12` (atropisomer, axis not shown) [Compound 364, 4-(2-ethyl-6-morpholino-4-(4H-1,2,4-triazol-3-yl)-1H-benzo[d]imidazol-1-yl)-3-methylquinoline-8-carbonitrile]: 25 nM; for `Cc1nc2c(-c3ccnnc3)cc(N3CCOCC3)cc2n1-c1ccnc2c(Cl)cccc12` [Example 314, 4-(1-(8-chloroquinolin-4-yl)-2-methyl-4-(pyridazin-4-yl)-1H-benzo[d]imidazol-6-yl)morpholine]: 7800 nM. The same measure for `Cc1nc2c(-c3n[nH]c(=O)o3)cc(N3CCOCC3)cc2n1-c1ccnc2cc(F)ccc12` [Example 166, 5-(1-(7-fluoroquinolin-4-yl)-2-methyl-6-morpholino-1H-benzo[d]imidazol-4-yl)-1,3,4-oxadiazol-2(3H)-one]: 480 nM. Take `Cc1nc2c(-c3cnn[nH]3)cc(N3CCOCC3)cc2n1-c1ccnc2c(Cl)cccc12` [Example 329, 4-(1-(8-chloroquinolin-4-yl)-2-methyl-4-(1H-1,2,3-triazol-5-yl)-1H-benzo[d]imidazol-6-yl)morpholine]: half-maximal inhibition (IC50) required 7 nM.

Regarding `Cc1c[nH]c(-c2cc(N3CCOCC3)cc3c2nc(C)n3-c2ccnc3c(Cl)cccc23)n1` [Example 176, 4-[3-(8-chloroquinolin-4-yl)-2-methyl-7-(4-methyl-1H-imidazol-2-yl)benzimidazol-5-yl]morpholine], the IC50 was 510 nM. Then `CCc1nc2c(-c3nnc[nH]3)cc(N3CCOCC3)cc2n1-c1ccnc2c(Cl)cccc12` [Example 105, 4-[3-(8-chloroquinolin-4-yl)-2-ethyl-7-(4H-1,2,4-triazol-3-yl)benzimidazol-5-yl]morpholine], with 10 nM.
